# Test results taken from patent US20060252807A1, “Novel ortho-terphenyl inhibitors of p38 kinase and methods of treating inflammatory disorders” (Kalypsys, Inc., priority 2005, published 2006).
# pIC50: −log10 of the molar value.
# Target: T1, active p38 alpha enzyme (Upstate Biotechnology) (Homo sapiens, UniProt Q16539)
# T1 construct: purchased Upstate Biotechnology
# Assay: p38α biochemical assay (ATP turnover, luminescent detection, Cambrex PKlight)
# Conditions: p38α kinase; Table 1 Biological Activity
# In short: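 In this kinase reaction, p38α used MapkapK2 as phosphorylation substrate at low ATP (1.4 uM final) over 2 hours at 30C, and activity was followed as ATP turnover by luminescence.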
# T1 sequence (Q16539 whole entry): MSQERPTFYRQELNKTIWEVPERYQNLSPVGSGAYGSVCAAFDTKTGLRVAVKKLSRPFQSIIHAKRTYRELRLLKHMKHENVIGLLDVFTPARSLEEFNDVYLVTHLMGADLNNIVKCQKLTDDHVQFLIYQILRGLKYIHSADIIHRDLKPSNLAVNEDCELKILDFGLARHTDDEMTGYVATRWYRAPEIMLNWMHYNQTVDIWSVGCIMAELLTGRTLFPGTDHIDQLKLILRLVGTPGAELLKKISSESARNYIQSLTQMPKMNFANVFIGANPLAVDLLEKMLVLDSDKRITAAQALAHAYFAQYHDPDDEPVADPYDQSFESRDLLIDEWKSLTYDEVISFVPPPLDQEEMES
row,SMILES,pIC50
1,CC(C)NC(=O)c1csc(-c2c(-c3ccc(F)cc3)noc2CNCCN2CCOCC2)n1 [Example 1441],< 6.00
2,CCOC(=O)CC(C)NCc1onc(-c2ccc(F)cc2)c1-c1nc(C(=O)NC(C)C)cs1 (stereo not shown) [Example 1442],< 6.00
3,CC(C)NC(=O)c1csc(-c2c(-c3ccc(F)cc3)noc2CNC2CCc3ccccc32)n1 (stereo not shown) [Example 1443],< 6.00
4,Cc1ccc([C@H](C)NCc2onc(-c3ccc(F)cc3)c2-c2nc(C(=O)NC(C)C)cs2)cc1 [Example 1446],< 6.00
5,CC(C)NC(=O)c1csc(-c2c(-c3ccc(F)cc3)noc2CNCC(C)c2ccccc2)n1 (stereo not shown) [Example 1448],< 6.00
6,Cc1ccc(CNCc2onc(-c3ccc(F)cc3)c2-c2nc(C(=O)NC(C)C)cs2)cc1C [Example 1451],< 6.00
7,CC(C)NC(=O)c1csc(-c2c(-c3ccc(F)cc3)noc2CNC(C)Cc2ccncc2)n1 (stereo not shown) [Example 1452],< 6.00
8,CC(C)NC(=O)c1csc(-c2c(-c3ccc(F)cc3)noc2CNCCc2ccc(O)cc2)n1 [Example 1453],< 6.00
9,CC(C)NC(=O)c1csc(-c2c(-c3ccc(F)cc3)noc2CNCCOc2ccccc2)n1 [Example 1454],< 6.00
10,COc1ccccc1CNCc1onc(-c2ccc(F)cc2)c1-c1nc(C(=O)NC(C)C)cs1 [Example 1455],< 6.00
11,COc1ccc(CNCc2onc(-c3ccc(F)cc3)c2-c2nc(C(=O)NC(C)C)cs2)cc1 [Example 1456],< 6.00
12,COc1cccc(CNCc2onc(-c3ccc(F)cc3)c2-c2nc(C(=O)NCC(C)C)cs2)c1 [Example 1457],< 6.00
13,CC(C)NC(=O)c1csc(-c2c(-c3ccc(F)cc3)noc2CNCCc2ccc(F)cc2)n1 [Example 1458],< 6.00
14,CC(C)NC(=O)c1csc(-c2c(-c3ccc(F)cc3)noc2CNCc2ccc(Cl)cc2)n1 [Example 1463],< 6.00
15,CC(C)NC(=O)c1csc(-c2c(-c3ccc(F)cc3)noc2CNCc2ccc(F)c(F)c2)n1 [Example 1466],< 6.00
16,CC(C)NC(=O)c1csc(-c2c(-c3ccc(F)cc3)noc2CNCCN(C(C)C)C(C)C)n1 [Example 1469],< 6.00
17,CC(C)NC(=O)c1csc(-c2c(-c3ccc(F)cc3)noc2CNC(C)CCc2ccccc2)n1 (stereo not shown) [Example 1470],< 6.00
18,CC(C)NC(=O)c1csc(-c2c(-c3ccc(F)cc3)noc2CNCc2ccc3c(c2)OCO3)n1 [Example 1472],< 6.00
19,CC(C)NC(=O)c1csc(-c2c(-c3ccc(F)cc3)noc2CN[C@H](CO)Cc2ccccc2)n1 [Example 1474],< 6.00
20,CCOc1ccccc1CNCc1onc(-c2ccc(F)cc2)c1-c1nc(C(=O)NC(C)C)cs1 [Example 1477],< 6.00
21,CC(C)NC(=O)c1csc(-c2c(-c3ccc(F)cc3)noc2CNCCc2ccccc2Cl)n1 [Example 1478],< 6.00
22,CC(C)NC(=O)c1csc(-c2c(-c3ccc(F)cc3)noc2CNCCc2ccc(Cl)cc2)n1 [Example 1479],< 6.00
23,CC(C)NC(=O)c1csc(-c2c(-c3ccc(F)cc3)noc2CNC2CC(C)(C)NC(C)(C)C2)n1 [Example 1481],< 6.00
24,CCN(CC)CCCC(C)NCc1onc(-c2ccc(F)cc2)c1-c1nc(C(=O)NC(C)C)cs1 (stereo not shown) [Example 1482],< 6.00
25,CC(C)NC(=O)c1csc(-c2c(-c3ccc(F)cc3)noc2CNCc2ccc(C(C)(C)C)cc2)n1 [Example 1486],< 6.00
26,CC(C)NC(=O)c1csc(-c2c(-c3ccc(F)cc3)noc2CNCCCN(C)c2ccccc2)n1 [Example 1487],< 6.00

# More lines, now with the values ahead:
row,pIC50,SMILES
1,< 6.00,CC(C)NC(=O)c1csc(-c2c(-c3ccc(F)cc3)noc2CNCc2ccccc2F)n1 [Example 1436]
2,< 6.00,CC(C)NC(=O)c1csc(-c2c(-c3ccc(F)cc3)noc2CNCCCn2ccnc2)n1 [Example 1437]
3,< 6.00,CC(C)NC(=O)c1csc(-c2c(-c3ccc(F)cc3)noc2CNCCC2CCCN2C)n1 (stereo not shown) [Example 1438]
4,< 6.00,CC(C)NC(=O)c1csc(-c2c(-c3ccc(F)cc3)noc2CNCCN2CCCCC2)n1 [Example 1439]
5,< 6.00,CC(C)CCCC(C)NCc1onc(-c2ccc(F)cc2)c1-c1nc(C(=O)NC(C)C)cs1 (stereo not shown) [Example 1440]
6,< 6.00,Cc1ccc(CCNCc2onc(-c3ccc(F)cc3)c2-c2nc(C(=O)NC(C)C)cs2)cc1 [Example 1444]
7,< 6.00,Cc1ccc(C)c(CNCc2onc(-c3ccc(F)cc3)c2-c2nc(C(=O)NC(C)C)cs2)c1 [Example 1445]
8,< 6.00,Cc1ccc([C@@H](C)NCc2onc(-c3ccc(F)cc3)c2-c2nc(C(=O)NC(C)C)cs2)cc1 [Example 1447]
9,< 6.00,CC(C)NC(=O)c1csc(-c2c(-c3ccc(F)cc3)noc2CNCC(C)c2ccccc2)n1 (stereo not shown) [Example 1449]
10,< 6.00,CC(C)NC(=O)c1csc(-c2c(-c3ccc(F)cc3)noc2CNCCCc2ccccc2)n1 [Example 1450]
11,< 6.00,CC(C)NC(=O)c1csc(-c2c(-c3ccc(F)cc3)noc2CNCCc2ccccc2F)n1 [Example 1459]
12,< 6.00,CC(C)NC(=O)c1csc(-c2c(-c3ccc(F)cc3)noc2CNCCc2cccc(F)c2)n1 [Example 1460]
13,< 6.00,CC(C)NC(=O)c1csc(-c2c(-c3ccc(F)cc3)noc2CNCc2cccc(Cl)c2)n1 [Example 1461]
14,< 6.00,CC(C)NC(=O)c1csc(-c2c(-c3ccc(F)cc3)noc2CNCc2ccccc2Cl)n1 [Example 1462]
15,≥ 6.00,CC(C)NC(=O)c1csc(-c2c(-c3ccc(F)cc3)noc2CNCCCN2CCCC2=O)n1 [Example 1464]
16,< 6.00,CC(C)NC(=O)c1csc(-c2c(-c3ccc(F)cc3)noc2CNCc2ccc(F)cc2F)n1 [Example 1465]
17,< 6.00,CC(C)NC(=O)c1csc(-c2c(-c3ccc(F)cc3)noc2CNCc2cc(F)cc(F)c2)n1 [Example 1467]
18,< 6.00,CC(C)NC(=O)c1csc(-c2c(-c3ccc(F)cc3)noc2CNCCCN2CCOCC2)n1 [Example 1468]
19,< 6.00,CC(C)NC(=O)c1csc(-c2c(-c3ccc(F)cc3)noc2CNCc2ccc(C(C)C)cc2)n1 [Example 1471]
20,< 6.00,COc1cccc(CCNCc2onc(-c3ccc(F)cc3)c2-c2nc(C(=O)NC(C)C)cs2)c1 [Example 1473]
21,< 6.00,COc1ccc(CCNCc2onc(-c3ccc(F)cc3)c2-c2nc(C(=O)NC(C)C)cs2)cc1 [Example 1475]
22,< 6.00,COc1ccccc1CCNCc1onc(-c2ccc(F)cc2)c1-c1nc(C(=O)NC(C)C)cs1 [Example 1476]
23,< 6.00,CC(C)NC(=O)c1csc(-c2c(-c3ccc(F)cc3)noc2CNCCc2cccc(Cl)c2)n1 [Example 1480]
24,< 6.00,CC(C)NC(=O)c1csc(-c2c(-c3ccc(F)cc3)noc2CNCc2ccc(F)c(Cl)c2)n1 [Example 1483]
25,< 6.00,CC(C)NC(=O)c1csc(-c2c(-c3ccc(F)cc3)noc2CNCCNC(=O)OC(C)(C)C)n1 [Example 1484]
26,< 6.00,CC(C)NC(=O)c1csc(-c2c(-c3ccc(F)cc3)noc2CNCCc2c[nH]c3ccccc23)n1 [Example 1485]
27,< 6.00,CC(C)NC(=O)c1csc(-c2c(-c3ccc(F)cc3)noc2CNCC2(O)CCCCC2)n1 [Example 1488]
28,< 6.00,COc1cc(CNCc2onc(-c3ccc(F)cc3)c2-c2nc(C(=O)NC(C)C)cs2)cc(OC)c1 [Example 1489]
29,< 6.00,COc1ccc(CNCc2onc(-c3ccc(F)cc3)c2-c2nc(C(=O)NC(C)C)cs2)cc1OC [Example 1490]
